{"source": "ChEMBL document CHEMBL4321867", "about": "“Optimization of LpxC Inhibitor Lead Compounds Focusing on Efficacy and Formulation for High Dose Intravenous Administration” (J Med Chem, 2020)", "key": {"[1]": {"system": "Escherichia coli", "assay": "microbe, parasite or virus in culture", "details": "ATCC 25922"}, "[2]": {"system": "Enterobacter cloacae", "assay": "microbe, parasite or virus in culture"}, "[3]": {"assay": "physchem", "details": "buffer, pH 4"}, "[4]": {"system": "Moraxella catarrhalis", "assay": "microbe, parasite or virus in culture"}, "[5]": {"assay": "in vitro", "details": "human, hepatocytes"}, "[6]": {"system": "Acinetobacter baumannii", "assay": "microbe, parasite or virus in culture"}, "[7]": {"system": "Klebsiella pneumoniae", "assay": "microbe, parasite or virus in culture", "details": "T6474"}, "[8]": {"assay": "physchem", "details": "buffer, pH 7"}, "[9]": {"assay": "in vitro", "details": "rat, liver microsomes"}, "[10]": {"system": "Klebsiella pneumoniae", "assay": "microbe, parasite or virus in culture"}, "[11]": {"system": "Klebsiella oxytoca", "assay": "microbe, parasite or virus in culture"}, "[12]": {"system": "Serratia marcescens", "assay": "microbe, parasite or virus in culture"}, "[13]": {"system": "Klebsiella aerogenes", "assay": "microbe, parasite or virus in culture"}, "[14]": {"assay": "in vitro", "details": "rat, hepatocytes"}, "[15]": {"system": "Morganella morganii", "assay": "microbe, parasite or virus in culture"}, "[16]": {"assay": "in vivo", "details": "mouse, sc, 150 mg/kg"}, "[17]": {"system": "Escherichia coli", "assay": "microbe, parasite or virus in culture"}, "[18]": {"system": "Haemophilus influenzae", "assay": "microbe, parasite or virus in culture"}, "[19]": {"system": "Proteus mirabilis", "assay": "microbe, parasite or virus in culture"}, "[20]": {"assay": "physchem", "details": "5% mannitol/water, pH 8.2"}, "[21]": {"system": "Citrobacter freundii", "assay": "microbe, parasite or virus in culture"}, "[22]": {"system": "Pseudomonas aeruginosa", "assay": "microbe, parasite or virus in culture"}, "[23]": {"assay": "in vivo", "details": "Wistar, rat, iv, 10 mg/kg"}, "[24]": {"system": "Burkholderia cepacia", "assay": "microbe, parasite or virus in culture"}, "[25]": {"assay": "physchem", "details": "n-octanol/phosphate buffer, pH 7.4"}, "[26]": {"assay": "physchem", "details": "buffer, pH 9"}, "[27]": {"assay": "in vitro", "details": "human, liver microsomes"}, "[28]": {"system": "Pseudomonas aeruginosa", "assay": "microbe, parasite or virus in culture", "details": "ATCC 27853"}, "[29]": {"system": "Stenotrophomonas maltophilia", "assay": "microbe, parasite or virus in culture"}, "[30]": {"assay": "in vitro", "details": "rat, plasma"}}, "data": [{"compound": "C[C@@](CCN1Cc2cc(C#CC#C[C@H]3C[C@@H]3[C@@H](O)CO)cn2C1=O)(C(=O)NO)S(C)(=O)=O", "values": [{"measurement": "MIC", "setting": "[1]", "value": 0.5, "unit": "µg/mL"}, {"measurement": "MIC90", "setting": "[2]", "value": 4, "unit": "µg/mL"}, {"measurement": "solubility at 24 h", "setting": "[3]", "value": "> 780", "unit": "µg/mL"}, {"measurement": "MIC90", "setting": "[4]", "value": "> 16", "unit": "µg/mL"}, {"measurement": "hepatocyte CLint at 1 µM", "setting": "[5]", "value": "< 2", "unit": "µL/min/1e6 cells"}, {"measurement": "MIC90", "setting": "[6]", "value": "> 16", "unit": "µg/mL"}, {"measurement": "MIC", "setting": "[7]", "value": 1, "unit": "µg/mL"}, {"measurement": "solubility at 24 h", "setting": "[8]", "value": "> 780", "unit": "µg/mL"}, {"measurement": "microsomal CLint at 1 µM", "setting": "[9]", "value": "< 10", "unit": "µL/min/mg"}, {"measurement": "MIC90", "setting": "[10]", "value": 4, "unit": "µg/mL"}, {"measurement": "MIC90", "setting": "[11]", "value": 4, "unit": "µg/mL"}, {"measurement": "MIC90", "setting": "[12]", "value": 0.5, "unit": "µg/mL"}, {"measurement": "MIC90", "setting": "[13]", "value": 2, "unit": "µg/mL"}, {"measurement": "hepatocyte CLint at 1 µM", "setting": "[14]", "value": 10.2, "unit": "µL/min/1e6 cells"}, {"measurement": "MIC90", "setting": "[15]", "value": 1, "unit": "µg/mL"}, {"measurement": "AUC(0-t) at 24 h", "setting": "[16]", "value": 347, "unit": "µg·h/mL"}, {"measurement": "MIC90", "setting": "[17]", "value": 2, "unit": "µg/mL"}, {"measurement": "MIC90", "setting": "[18]", "value": "≤ 0.03", "unit": "µg/mL"}, {"measurement": "MIC90", "setting": "[19]", "value": 1, "unit": "µg/mL"}, {"measurement": "solubility", "setting": "[20]", "value": 25000, "unit": "µg/mL"}, {"measurement": "MIC90", "setting": "[21]", "value": 1, "unit": "µg/mL"}, {"measurement": "MIC90", "setting": "[22]", "value": 2, "unit": "µg/mL"}, {"measurement": "clearance at 24 h", "setting": "[23]", "value": 3.1, "unit": "mL/min/kg"}, {"measurement": "MIC90", "setting": "[24]", "value": 8, "unit": "µg/mL"}, {"measurement": "logD", "setting": "[25]", "value": 0.5}, {"measurement": "solubility at 24 h", "setting": "[26]", "value": "> 780", "unit": "µg/mL"}, {"measurement": "microsomal CLint at 1 µM", "setting": "[27]", "value": "< 10", "unit": "µL/min/mg"}, {"measurement": "MIC", "setting": "[28]", "value": 1, "unit": "µg/mL"}, {"measurement": "MIC90", "setting": "[29]", "value": "> 16", "unit": "µg/mL"}, {"measurement": "fraction unbound at 1 µM", "setting": "[30]", "value": 0.018}]}]}
